Patent US9359311B2, “Substituted aromatic oligomers” (NEUROSCIOS GMBH, priority 2011, dated 2016)
“And” between values parts separate entries of the source, which are not always exact repeats. Identical values can stand only once.

biological target: T1, biotinylated Aβ1-42 (Homo sapiens, UniProt P05067); assay: Inhibition of Abeta oligomerisation (biotinylated Aβ1-42, neutravidin plate, streptavidin-HRP); format: biochemical; settings: inhibition of Aβ1-42 aggregation, approximately 12 nM Aβ1-42, PBS pH 7.4, 2% DMSO, 30 min RT
T1 construct: To assure monomerisation of biotinylated Aβ1-42 (Anaspec #23523-0.5) the peptide was thoroughly monomerised; purchased Anaspec 23523-0.5
T1 sequence (P05067 672-713 limits assumed): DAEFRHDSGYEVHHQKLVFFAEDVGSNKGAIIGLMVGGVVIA

Row | SMILES | IC50
1 | O=C(O)Cc1cc(-c2ccc(-c3ccccc3C(=O)O)s2)sc1-c1ccc(-c2sc(-c3ccc(-c4ccccc4C(=O)O)s3)cc2CC(=O)O)s1 [Example 43, 2-{5-[4-(Carboxymethyl)-5-{5-[3-(carboxymethyl)-5-[5-(2-carboxyphenyl)thiophen-2-yl]thiophen-2-yl]thiophen-2-yl}thiophen-2-yl]thiophen-2-yl}benzoic acid] | 3.98 µM
2 | CS(=O)(=O)c1ccc(-c2cc(CCC(=O)O)c(-c3ccc(-c4sc(-c5ccc(S(C)(=O)=O)cc5)cc4CCC(=O)O)s3)s2)cc1 [Example 51, 3-(2-{5-[3-(2-Carboxyethyl)-5-(4-methanesulfonylphenyl)thiophen-2-yl]thiophen-2-yl}-5-(4-methanesulfonylphenyl)thiophen-3-yl)propanoic acid] | 1.58 µM and 7.94 µM
3 | O=C(O)CCc1cc(-c2ccc(C(=O)O)s2)sc1-c1ccc(-c2sc(-c3ccc(C(=O)O)s3)cc2CCC(=O)O)s1 [Example 53, 5-[4-(2-Carboxethyl)-5-{5-[3-(2-carboxyethyl)-5-(5-carboxythiophen-2-yl)thiophen-2-yl]thiophen-2-yl}thiophen-2-yl]thiophene-2-carboxylic acid] | 3.98 µM
4 | O=C(O)/C=C/c1ccc(-c2cc(CC(=O)O)c(-c3ccc(-c4sc(-c5ccc(/C=C/C(=O)O)s5)cc4CC(=O)O)s3)s2)s1 [Example 64] | 2.51 µM
5 | O=C(O)Cc1cc(-c2cc(CC(=O)O)c(-c3ccc(-c4cccc(C(=O)O)c4)s3)s2)sc1-c1ccc(-c2cccc(C(=O)O)c2)s1 [Example 66, 3-{5-[3-(Carboxymethyl)-5-[4-(carboxymethyl)-5-[5-(3-carboxyphenyl)thiophen-2-yl]thiophen-2-yl]thiophen-2-yl]thiophen-2-yl}benzoic acid] | 5.01 µM
6 | COC(=O)Cc1cc(-c2ccc(C(=O)O)s2)sc1-c1ccc(-c2sc(-c3ccc(C(=O)O)s3)cc2CC(=O)OC)s1 [Example 69, 5-(5-{5-[5-(5-Carboxythiophen-2-yl)-3-(2-methoxy-2-oxoethyl)thiophen-2-yl]thiophen-2-yl}-4-(2-methoxy-2-oxoethyl)thiophen-2-yl)thiophene-2-carboxylic acid] | 2.51 µM
7 | COC(=O)c1ccc(-c2cc(CC(=O)O)c(-c3ccc(-c4sc(-c5ccc(C(=O)OC)s5)cc4CC(=O)O)s3)s2)s1 [Example 70, 2-(2-{5-[3-(Carboxymethyl)-5-[5-(methoxycarbonyl)thiophen-2-yl]thiophen-2-yl]thiophen-2-yl}-5-[5-(methoxycarbonyl)thiophen-2-yl]thiophen-3-yl)acetic acid] | 3.16 µM
8 | O=C(O)Cc1ccc(-c2ccc(-c3ccc(CC(=O)O)s3)s2)s1 [Example 72, 2-(5-{5-[5-(Carboxymethyl)thiophen-2-yl]thiophen-2-yl}thiophen-2-yl)acetic acid] | 25.1 µM
9 | O=C(O)c1cccc(-c2cc(CCO)c(-c3ccc(-c4sc(-c5cccc(C(=O)O)c5)cc4CCO)s3)s2)c1 [Example 74, 3-(5-{5-[5-(3-Carboxyphenyl)-3-(2-hydroxyethyl)thiophen-2-yl]thiophen-2-yl}-4-(2-hydroxyethyl)thiophen-2-yl)benzoic acid] | 5.01 µM
10 | CS(=O)(=O)c1ccc(-c2cc(CC(=O)O)c(-c3ccc(-c4sc(-c5ccc(C(=O)O)s5)cc4CC(=O)O)s3)s2)cc1 [Example 75, 5-[4-(Carboxymethyl)-5-{5-[3-(carboxymethyl)-5-(4-methanesulfonylphenyl)thiophen-2-yl]thiophen-2-yl}thiophen-2-yl]thiophene-2-carboxylic acid] | 31.6 µM
11 | Cn1nc(C(F)(F)F)cc1-c1cc(CC(=O)O)c(-c2ccc(-c3sc(-c4cc(C(F)(F)F)nn4C)cc3CC(=O)O)s2)s1 [Example 77, 2-(2-{5-[3-(Carboxymethyl)-5-[1-methyl-3-(trifluoromethyl)-1H-pyrazol-5-yl]thiophen-2-yl]thiophen-2-yl}-5-[1-methyl-3-(trifluoromethyl)-1H-pyrazol-5-yl]thiophen-3-yl)acetic acid] | 5.01 µM
12 | O=C(O)Cc1cc(-c2ccc(C(=O)N3CCCC3)c(F)c2)sc1-c1ccc(-c2sc(-c3ccc(C(=O)N4CCCC4)c(F)c3)cc2CC(=O)O)s1 [Example 78, 2-(2-{5-[3-(Carboxymethyl)-5-[3-fluoro-4-(pyrrolidine-1-carbonyl)phenyl]thiophen-2-yl]thiophen-2-yl}-5-[3-fluoro-4-(pyrrolidine-1-carbonyl)phenyl]thiophen-3-yl)acetic acid] | 5.01 µM
13 | O=C(O)Cc1cc(-c2cccc(C(=O)NC3CC3)c2)sc1-c1ccc(-c2sc(-c3cccc(C(=O)NC4CC4)c3)cc2CC(=O)O)s1 [Example 80, 2-(2-{5-[3-(Carboxymethyl)-5-[3-(cyclopropylcarbamoyl)phenyl]thiophen-2-yl]thiophen-2-yl}-5-[3-(cyclopropylcarbamoyl)phenyl]thiophen-3-yl)acetic acid] | 7.94 µM
14 | N#Cc1cccc(-c2cc(CC(=O)O)c(-c3ccc(-c4sc(-c5cccc(C#N)c5)cc4CC(=O)O)s3)s2)c1 [Example 83, 2-(2-{5-[3-(Carboxymethyl)-5-(3-cyanophenyl)thiophen-2-yl]thiophen-2-yl}-5-(3-cyanophenyl)thiophen-3-yl)acetic acid] | 12.6 µM
15 | O=C(O)Cc1ccsc1-c1ccc(-c2cc(CC(=O)O)c(-c3ccc(-c4sc(-c5ccc(-c6sccc6CC(=O)O)s5)cc4CC(=O)O)s3)s2)s1 [Example 84, 2-(2-{5-[3-(Carboxymethyl)-5-{5-[3-(carboxymethyl)thiophen-2-yl]thiophen-2-yl}thiophen-2-yl]thiophen-2-yl}-5-{5-[3-(carboxymethyl)thiophen-2-yl]thiophen-2-yl}thiophen-3-yl)acetic acid] | 1.58 µM
16 | N#Cc1ccc(-c2cc(CC(=O)O)c(-c3ccc(-c4sc(-c5ccc(C#N)s5)cc4CC(=O)O)s3)s2)s1 [Example 85, 2-(2-{5-[3-(Carboxymethyl)-5-(5-cyanothiophen-2-yl)thiophen-2-yl]thiophen-2-yl}-5-(5-cyanothiophen-2-yl)thiophen-3-yl)acetic acid] | 3.98 µM
17 | C#Cc1cc(CC(=O)O)c(-c2ccc(-c3sc(C#C)cc3CC(=O)O)s2)s1 [Example 86, 2-(2-{5-[3-(Carboxymethyl)-5-ethynylthiophen-2-yl]thiophen-2-yl}-5-ethynylthiophen-3-yl)acetic acid] | 20 µM

Continued, values first:

Row | IC50 | SMILES
18 | 0.251 µM | NCCc1ccsc1-c1ccc(-c2sc(-c3ccc(-c4cc(CCN)c(-c5ccc(-c6sccc6CCN)s5)s4)s3)cc2CCN)s1 [Example 42, 2-(2-{5-[3-(2-Aminoethyl)-5-{5-[4-(2-aminoethyl)-5-{5-[3-(2-aminoethyl)thiophen-2-yl]thiophen-2-yl}thiophen-2-yl]thiophen-2-yl}thiophen-2-yl]thiophen-2-yl}thiophen-3-yl)ethan-1-amine]
19 | 1.26 µM | O=C(O)Cc1cc(-c2ccc(-c3cc(CC(=O)O)c(-c4ccc(-c5ccc(C(=O)O)cc5)s4)s3)s2)sc1-c1ccc(-c2ccc(C(=O)O)cc2)s1 [Example 54, 4-{5-[3-(Carboxymethyl)-5-{5-[4-(carboxymethyl)-5-[5-(4-carboxyphenyl)thiophen-2-yl]thiophen-2-yl]thiophen-2-yl}thiophen-2-yl]thiophen-2-yl}benzoic acid]
20 | 0.398 µM | O=C(O)Cc1cccc(-c2ccc(-c3cc(CC(=O)O)c(-c4ccc(-c5sc(-c6ccc(-c7cccc(CC(=O)O)c7)s6)cc5CC(=O)O)s4)s3)s2)c1 [Example 57, 2-(2-{5-[3-(Carboxymethyl)-5-{5-[3-(carboxymethyl)phenyl]thiophen-2-yl}thiophen-2-yl]thiophen-2-yl}-5-{5-[3-(carboxymethyl)phenyl]thiophen-2-yl}thiophen-3-yl)acetic acid]
21 | 0.398 µM | O=C(O)Cc1cc(Cl)sc1-c1ccc(-c2sc(-c3ccc(-c4cc(CC(=O)O)c(-c5ccc(-c6sc(Cl)cc6CC(=O)O)s5)s4)s3)cc2CC(=O)O)s1 [Example 58, 2-(2-{5-[3-(Carboxymethyl)-5-{5-[4-(carboxymethyl)-5-{5-[3-(carboxymethyl)-5-chlorothiophen-2-yl]thiophen-2-yl}thiophen-2-yl]thiophen-2-yl}thiophen-2-yl]thiophen-2-yl}-5-chlorothiophen-3-yl)acetic acid]
22 | 1 µM | Cc1ccc(-c2ccc(-c3cc(CC(=O)O)c(-c4ccc(-c5sc(-c6ccc(-c7ccc(C)cc7C(=O)O)s6)cc5CC(=O)O)s4)s3)s2)c(C(=O)O)c1 [Example 63, 2-{5-[5-(5-{5-[5-(2-Carboxy-4-methylphenyl)thiophen-2-yl]-3-(carboxymethyl)thiophen-2-yl}thiophen-2-yl)-4-(carboxymethy)thiophen-2-yl]thiophen-2-yl}-5-methylbenzoic acid]
23 | 0.631 µM | O=C(O)Cc1cc(-c2ccc(-c3cc(CC(=O)O)c(-c4ccc(-c5cccc(C(=O)O)c5)s4)s3)s2)sc1-c1ccc(-c2cccc(C(=O)O)c2)s1 [Example 65, 3-{5-[3-(Carboxymethyl)-5-{5-[4-(carboxymethyl)-5-[5-(3-carboxyphenyl)thiophen-2-yl]thiophen-2-yl]thiophen-2-yl}thiophen-2-yl]thiophen-2-yl}thiophen-2-benzoic acid]
24 | 1 µM | O=C(O)Cc1cc(-c2cccc(OC(F)(F)F)c2)sc1-c1ccc(-c2sc(-c3cccc(OC(F)(F)F)c3)cc2CC(=O)O)s1 [Example 87, 2-(2-{5-[3-(Carboxymethyl)-5-[3-(trifluoromethoxy)phenyl]thiophen-2-yl]thiophen-2-yl}-5-[3-(trifluoromethoxy)phenyl]thiophen-3-yl)acetic acid]
